What was measured:
HAP1 MTAP-intact = assay: SDMA in-cell western assay, HAP1 MTAP-intact cell line; assay type: cell-based; conditions: Homo sapiens
Excerpt: Table 1a also indicates IC50 values in an MTAP-isogenic cell line pair for exemplary compounds in an SDMA in-cell western assay (columns 7-8). HAP1 MTAP-intact is a cell line in which endogenous levels of MTAP are expressed, and HAP1 MTAP-deleted is an MTAP-null cell line. […] Compounds with a ratio in the SDMA in-cell western assay of equal to or greater than 3 fold are considered MTAP-selective.

HAP1 MTAP-deleted = assay: SDMA in-cell western assay, HAP1 MTAP-deleted cell line; assay type: cell-based; conditions: Homo sapiens, HAP1 MTAP-deleted cell line
Excerpt: Table 1a also indicates IC50 values in an MTAP-isogenic cell line pair for exemplary compounds in an SDMA in-cell western assay (columns 7-8). HAP1 MTAP-intact is a cell line in which endogenous levels of MTAP are expressed, and HAP1 MTAP-deleted is an MTAP-null cell line.

PRMT5 [1] = target: T1, PRMT5 (Homo sapiens, UniProt O14744); assay: PRMT5 IC50 assay in the presence of MTA as cofactor; assay type: biochemical; conditions: for IC50: PRMT5, MTA as cofactor; for SAM/MTA Ratio: ratio between Ki in the presence of SAM and Ki in the presence of MTA
T1 construct: purchased Viva (custom protein)
T1 sequence (O14744 whole entry): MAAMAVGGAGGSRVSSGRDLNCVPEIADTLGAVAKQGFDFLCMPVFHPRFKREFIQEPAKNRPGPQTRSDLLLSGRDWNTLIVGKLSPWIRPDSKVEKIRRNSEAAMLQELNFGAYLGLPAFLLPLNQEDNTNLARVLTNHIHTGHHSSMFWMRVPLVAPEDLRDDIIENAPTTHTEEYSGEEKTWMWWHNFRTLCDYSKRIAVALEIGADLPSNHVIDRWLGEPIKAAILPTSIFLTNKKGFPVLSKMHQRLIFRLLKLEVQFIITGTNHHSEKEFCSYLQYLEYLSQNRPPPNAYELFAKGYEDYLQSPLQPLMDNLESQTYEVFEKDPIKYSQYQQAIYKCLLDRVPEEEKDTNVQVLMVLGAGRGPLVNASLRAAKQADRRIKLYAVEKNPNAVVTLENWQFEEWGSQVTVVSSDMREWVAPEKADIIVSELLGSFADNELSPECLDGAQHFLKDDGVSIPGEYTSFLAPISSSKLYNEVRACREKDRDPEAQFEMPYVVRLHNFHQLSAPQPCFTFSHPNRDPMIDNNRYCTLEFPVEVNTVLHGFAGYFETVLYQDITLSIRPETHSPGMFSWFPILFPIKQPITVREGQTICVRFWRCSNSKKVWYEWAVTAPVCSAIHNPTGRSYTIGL
T1 sequence (Q9BQA1 whole entry partner): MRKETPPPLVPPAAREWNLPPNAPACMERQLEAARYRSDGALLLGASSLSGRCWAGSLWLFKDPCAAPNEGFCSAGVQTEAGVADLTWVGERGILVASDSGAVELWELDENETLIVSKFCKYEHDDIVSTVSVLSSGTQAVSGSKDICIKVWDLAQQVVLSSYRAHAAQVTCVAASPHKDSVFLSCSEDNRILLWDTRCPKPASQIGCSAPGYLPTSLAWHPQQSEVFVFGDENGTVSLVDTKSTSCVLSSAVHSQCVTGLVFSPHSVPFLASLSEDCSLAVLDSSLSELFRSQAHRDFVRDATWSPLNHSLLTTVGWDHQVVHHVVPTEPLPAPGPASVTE
Method in brief: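 Three cofactor conditions tested for PRMT5 inhibition: none, MTA and SAM, each giving an IC50. For conversion to Ki, the MTA-condition IC50 is divided by 13.5 and the SAM-condition IC50 by 1.5, and the two Ki values are expressed as a SAM/MTA ratio.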

PRMT5 [2] = target: T1, PRMT5; assay: PRMT5 IC50 assay in the presence of SAM as cofactor; assay type: biochemical
Method in brief: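 Potency against PRMT5 is compared across cofactor states, where IC50 equals Ki×1.5 with SAM present and Ki×13.5 with MTA present.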

PRMT5 [3] = target: T1, PRMT5; assay: PRMT5 IC50 assay with no cofactor; assay type: biochemical; conditions: read-out: No Co-factor IC50
Method in brief: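 IC50 values were measured against human PRMT5 with SAM, with MTA, or with no cofactor. Ki was derived from IC50 as Ki=IC50/1.5 with SAM and Ki=IC50/13.5 with MTA, and the Ki(SAM)/Ki(MTA) ratio was then taken.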

Row | Compound | IC50 (HAP1 MTAP-intact) [nM] | IC50 (HAP1 MTAP-deleted) [nM] | IC50 (PRMT5 [1]) [nM] | SAM/MTA Ratio (PRMT5 [1]) | IC50 (PRMT5 [2]) [nM] | IC50 (PRMT5 [3]) [nM]
1 | Cn1nccc1COc1ccc2c(c1)CCN(C[C@@H](O)CNC(=O)c1ccnc(NC3CCC3)c1)C2 [Compound 14, (S)-2-(cyclobutylamino)-N-(2-hydroxy-3-(6-((1-methyl-1H-pyrazol-5-yl)methoxy)-3,4-dihydroisoquinolin-2(1H)-yl)propyl)isonicotinamide] | 1000 to 10000 | ≥ 10000 | – | – | – | –
2 | O=C(NC[C@H](O)CN1CCc2cc(OCc3cnco3)ccc2C1)c1ccnc(NC2CCC2)c1 [Compound 74, 2-(cyclobutylamino)-N-[(2S)-2-hydroxy-3-[6-(oxazol-5-ylmethoxy)-3,4-dihydro-1H-isoquinolin-2-yl]propyl]pyridine-4-carboxamide] | 1000 to 10000 | 1000 to 10000 | – | – | – | –
3 | Cc1ncoc1COc1ccc2c(c1)CCN(C[C@@H](O)CNC(=O)c1ccnc(NC3CCC3)c1)C2 [Compound 96, (S)-2-(cyclobutylamino)-N-(2-hydroxy-3-(6-((4-methyloxazol-5-yl)methoxy)-3,4-dihydroisoquinolin-2(1H)-yl)propyl)isonicotinamide] | < 1000 | < 1000 | – | – | – | –
4 | O=C(NC[C@H](O)CN1CCc2cc(OCc3cn[nH]c3)ccc2C1)c1ccnc(NC2CCC2)c1 [Compound 163, 2-(cyclobutylamino)-N-[(2S)-2-hydroxy-3-[6-(1H-pyrazol-4-ylmethoxy)-3,4-dihydro-1H-isoquinolin-2-yl]propyl]pyridine-4-carboxamide] | < 1000 | < 1000 | – | – | – | –
5 | O=C(NC[C@H](O)CN1CCc2c(ccc(OCc3cnco3)c2Cl)C1)c1ccnc(NC2CCC2)c1F [Compound 326, (S)—N-(3-(5-chloro-6-(oxazol-5-ylmethoxy)-3N-dihydroisoquinolin-2(1H)-yl)-2-hydroxypropyl)-2-(cyclobutylamino)-3-fluoroisonicotinamide] | ≥ 10000 | ≥ 10000 | – | – | – | –
6 | CC(=O)N1CC(Nc2cc(C(=O)NC[C@H](O)CN3CCc4cc(OCc5ocnc5C)c(F)cc4C3)cc(N3CCCCC3)n2)C1 [Compound 638] | 1000 to 10000 | – | 50 to 500 | A (a Ki ratio greater than or equal to 10 fold between the Ki in the presence of SAM and the Ki in the presence of MTA) | 50 to 500 | 50 to 500
7 | CC(=O)N1CCC(Nc2cc(C(=O)NC[C@H](O)CN3CCc4cc(OCc5ocnc5C)ccc4C3)cc(C(C)C)n2)CC1 [Compound 646, (S)-2-((1-acetylpiperidin-4-yl)amino)-N-(2-hydroxy-3-(6-((4-methyloxazol-5-yl)methoxy)-3,4-dihydroisoquinolin-2(1H)-yl)propyl)-6-isopropylisonicotinamide] | – | – | < 50 | A (a Ki ratio greater than or equal to 10 fold between the Ki in the presence of SAM and the Ki in the presence of MTA) | 50 to 500 | 500 to 5000
8 | CC(=O)N1CC(Nc2cc(C(=O)NCC(O)CN3CCc4nc(OCc5ocnc5C)ccc4C3)nc(N3CCCCC3)n2)C1 (centres unmarked) [Compound 650] | – | – | 50 to 500 | A (a Ki ratio greater than or equal to 10 fold between the Ki in the presence of SAM and the Ki in the presence of MTA) | 50 to 500 | 500 to 5000
9 | CC(=O)N1CC(Nc2cc(C(=O)NCC(O)CN3CCc4c(C)c(OCc5ocnc5C)cc(F)c4C3)nc(N3CCCCC3)n2)C1 (centres unmarked) [Compound 651] | – | – | 50 to 500 | A (a Ki ratio greater than or equal to 10 fold between the Ki in the presence of SAM and the Ki in the presence of MTA) | 50 to 500 | 500 to 5000
10 | CC(=O)N1CCC(Nc2cc(C(=O)NC[C@@H](O)CN3CCc4c(C)c(OCc5ocnc5C)cc(F)c4C3)cc(N3CCCCC3)n2)CC1 [Compound 652] | – | – | 50 to 500 | A (a Ki ratio greater than or equal to 10 fold between the Ki in the presence of SAM and the Ki in the presence of MTA) | 50 to 500 | 500 to 5000
11 | CC(=O)N1CCC(Nc2cc(C(=O)NC[C@H](O)CN3CCc4c(C)c(OCc5ocnc5C)cc(F)c4C3)cc(N3CCCCC3)n2)CC1 [Compound 653] | – | – | 500 to 5000 | A (a Ki ratio greater than or equal to 10 fold between the Ki in the presence of SAM and the Ki in the presence of MTA) | 500 to 5000 | ≥ 5000

From US11986471B2, “Compounds and methods of use” (Tango Therapeutics, Inc., priority 2018, dated 2024)
